Test results from patent US5021430A, “Certain N-substituted butyramide derivatives” (Ciba-Geigy Corporation, priority 1987, dated 1991).

Target: T1, enkephalinase (Rattus norvegicus, UniProt P07861)
T1 construct: synaptic membrane preparation from rat striatum; from tissue; host or cells: rat striatum, synaptic membrane preparation
T1 sequence (P07861 1-750): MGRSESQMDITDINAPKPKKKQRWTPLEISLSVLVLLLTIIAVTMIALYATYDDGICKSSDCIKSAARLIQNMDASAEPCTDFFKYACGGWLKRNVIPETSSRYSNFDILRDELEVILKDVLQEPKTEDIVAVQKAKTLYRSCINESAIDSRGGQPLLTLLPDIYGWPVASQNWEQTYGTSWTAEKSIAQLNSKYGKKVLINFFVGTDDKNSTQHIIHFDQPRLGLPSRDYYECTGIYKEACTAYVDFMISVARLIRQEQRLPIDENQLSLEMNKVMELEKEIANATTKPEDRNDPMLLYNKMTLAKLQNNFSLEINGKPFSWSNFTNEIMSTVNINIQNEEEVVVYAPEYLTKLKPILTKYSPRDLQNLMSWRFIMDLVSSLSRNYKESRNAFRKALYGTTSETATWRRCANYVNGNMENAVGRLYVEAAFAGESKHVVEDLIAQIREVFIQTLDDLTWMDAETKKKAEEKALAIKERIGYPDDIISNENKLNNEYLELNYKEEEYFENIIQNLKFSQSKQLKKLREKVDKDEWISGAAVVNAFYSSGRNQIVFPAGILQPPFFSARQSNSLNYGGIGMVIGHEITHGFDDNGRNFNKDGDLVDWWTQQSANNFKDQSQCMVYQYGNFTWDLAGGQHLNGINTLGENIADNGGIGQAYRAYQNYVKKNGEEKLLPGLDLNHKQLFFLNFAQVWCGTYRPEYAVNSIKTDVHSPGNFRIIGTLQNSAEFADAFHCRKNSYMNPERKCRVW
Assay: enkephalinase inhibitory activity in vitro (inhibition of 3H-Tyr-gly-gly generation from 3H-Leu-enkephalin)
Assay type: biochemical
Settings: rat striatum synaptic membrane preparation, pH 6.5, 3H-Leu-enkephalin, 15 minutes at 30° C., 10^-6 M Bestatin
Method: The enkephalinase inhibitory activity is determined in vitro by an adaptation of the method of Alstein et al. as described in Life Sciences 28, 185 (1981), as follows:
A mixture of a solution of the test compound in distilled water or distilled water and ethanol diluted with pH 6.5 buffer and of a synaptic membrane preparation from rat striatum is incubated at pH 6.5 with ^3 H-Leu-enkephalin for 15 minutes at 30° C., in the presence of 10^-6 M Bestatin (to inhibit aminopeptidase activity). The reaction is stopped by the addition of 30% acetic acid and the reaction product ^3 H-Tyr-gly-gly is separated from unreacted ^3 H-Leu-enkephalin on a Porapak O column followed by a Cu^++-chelex column. The ^3 H-Tyr-gly-gly is counted by liquid scintillation. The amount of ^3 H-Tyr-gly-gly generated in the presence of test compound as compared to control is then calculated. An IC50 value representing the concentration of test compound required for 50% inhibition of ^3 H-Tyr-gly-gly generation is then determined graphically.

IC50 [nM]	IC50 (unit inferred) [nM]	SMILES
~5		O=C(O)[C@H](Cc1ccccc1)C[C@@H](Cc1ccccc1)C(=O)N[C@@H](CCc1ccccc1)C(=O)O [N-[(S,S)-2,4-dibenzyl-4-carboxybutyryl]-(L)-homophenylalanine]
	~4	O=C(O)[C@H](Cc1ccccc1)C[C@@H](Cc1ccccc1)C(=O)N[C@@H](COCc1ccccc1)C(=O)O [N-[(S,S)-2,4-dibenzyl-4-carboxybutyryl]-O-benzyl-(L)-serine]
~6		O=C(O)[C@H](Cc1ccccc1)C[C@@H](Cc1ccccc1)C(=O)N[C@@H](CSCc1ccccc1)C(=O)O [N-[(S,S)-2,4-dibenzyl-4-carboxybutyryl]-S-benzyl-(L)-cysteine]
